“And” between values parts separate entries of the source, which are not always exact repeats. Equal entries are not always repeated. Structures can show the parent of a compound that is named as a salt.

This assay deals with SOX2. The experiment in a line: Screen of a library of FDA-approved drugs for SOX2 antibody staining in A375 cells treated with PLX4720 and AZD6244. As to conditions: for cor. loess / raw / norm: A375 cells, 5 uM test drug with 1 uM PLX4720 and 0.5 uM AZD6244, 24 h; for cor. loess: normalized and geometry-corrected (loess) signal; for raw: raw signal (ratio of FL2 SOX2 antibody and FL3 nuclear staining), screen run in duplicate; for norm: signal after plate normalization; for z: Z-test against negative controls (DMSO), single dose 5 uM.

For `CC(=O)O[C@H]1C[C@H](O[C@H]2[C@@H](O)C[C@H](O[C@H]3[C@@H](O)C[C@H](O[C@H]4CC[C@@]5(C)[C@H](CC[C@@H]6[C@@H]5C[C@@H](O)[C@]5(C)[C@@H](C7=CC(=O)OC7)CC[C@]65O)C4)O[C@@H]3C)O[C@@H]2C)O[C@H](C)[C@H]1O[C@@H]1O[C@H](CO)[C@@H](O)[C@H](O)[C@H]1O` [LANATOSIDE C], the cor. loess was 1.074 and 1.059; the raw was 0.9723 and 0.963; the norm was 0.4949.

Consider `CN(C)c1ccc2nc3ccc(=[N+](C)C)cc-3sc2c1` [METHYLENE BLUE], for which the cor. loess is 0.5193, the raw stood at 0.9751, the norm is 0.5531 and the z is recorded as 3.072.

With `CC(=O)OCC(=O)[C@@]1(O)CC[C@H]2[C@@H]3CCC4=CC(=O)C=C[C@]4(C)[C@H]3[C@@H](O)C[C@@]21C` [PREDNISOLONE ACETATE], the cor. loess is reported as 0.4697, the raw is 0.9772, the norm is on record as 0.4997 and the z is on record as 3.871.

For the compound `Cc1cc2nc3ccc(N(C)C)cc3[s+]c2cc1N` [TOLONIUM CHLORIDE], the cor. loess turned out to be 0.7082, the raw is listed as 0.971, the norm is recorded as 0.6829 and the z is reported as 7.851.

Turning to `Cc1c(OCC(F)(F)F)ccnc1C[S+]([O-])c1nc2ccccc2[nH]1` (stereo not drawn) [LANSOPRAZOLE], the cor. loess worked out at 0.2732, the raw stood at 0.9819, the norm is on record as 0.3712 and the z worked out at 3.717.

Take `CCN(CC)CCNC(=O)c1c(C)[nH]c(/C=C2\C(=O)Nc3ccc(F)cc32)c1C` [Sunitinib]: the cor. loess was found to be 0.5385, the raw worked out at 0.9775, the norm amounted to 0.514 and the z is listed as 5.758.

For `COC(=O)C[C@](O)(CCCC(C)(C)O)C(=O)O[C@@H]1C(OC)=C[C@]23CCCN2CCc2cc4c(cc2[C@H]13)OCO4` [Homoharringtonine], the cor. loess is 1.181, the raw is reported as 0.9576, the norm stood at 1.161 and the z is 8.354.

In the case of `C[C@H]1O[C@@H](O[C@H]2[C@@H](O)C[C@H](O[C@H]3[C@@H](O)C[C@H](O[C@H]4CC[C@@]5(C)[C@H](CC[C@@H]6[C@@H]5C[C@@H](O)[C@]5(C)[C@@H](C7=CC(=O)OC7)CC[C@]65O)C4)O[C@@H]3C)O[C@@H]2C)C[C@H](O)[C@@H]1O` [DIGOXIN], the cor. loess was 1.623, the raw amounted to 0.9433, the norm worked out at 1.668 and the z worked out at 13.38.

As for `CC(=O)OCC(=O)[C@@]12OC3(CCCC3)O[C@@H]1C[C@H]1[C@@H]3CCC4=CC(=O)C=C[C@]4(C)[C@@]3(F)[C@@H](O)C[C@@]12C` [AMCINONIDE], the cor. loess is listed as 0.491, the raw was 0.9761, the norm is listed as 0.5647 and the z was found to be 6.68.

Turning to `C[C@]12C=CC(=O)C=C1CC[C@H]1[C@@H]3C[C@@H](O)[C@](O)(C(=O)CO)[C@@]3(C)C[C@H](O)[C@@]12F` [TRIAMCINOLONE], the cor. loess was 0.4006, the raw is 0.9821, the norm is 0.3941 and the z stood at 3.438.

`CN1CCN(c2c(F)cc3c(=O)c(C(=O)O)cn4c3c2SCC4)CC1` [RUFLOXACIN HYDROCHLORIDE]: the cor. loess turned out to be 0.3991, the raw came out at 0.9796, the norm is 0.4438 and the z is recorded as 4.267.

Consider `Oc1cc(Cl)ccc1Oc1ccc(Cl)cc1Cl` [TRICLOSAN], for which the cor. loess was 0.531, the raw amounted to 0.9753, the norm came to 0.5438 and the z is recorded as 3.141.

Turning to `CCN(CC)C(=S)SSC(=S)N(CC)CC`, the cor. loess was found to be 0.5909, the raw is 0.973, the norm was 0.642 and the z is reported as 4.87.

The values above are taken from patent US20200325543A1, “DIAGNOSTIC METHOD” (TOLREMO THERAPEUTICS AG, priority 2017, published 2020).
